Measurements published in the supplement of paper PMC10307832.

Tests used:
Experiment in all cases: relative viability (nuclei count vs DMSO), 5 days (fraction); higher = more cells survive
CUDC-101 + Navitoclax = compound: C#Cc1cccc(Nc2ncnc3cc(OC)c(OCCCCCCC(=O)NO)cc23)c1 [CUDC-101] + CC1(C)CCC(c2ccc(Cl)cc2)=C(CN2CCN(c3ccc(C(=O)NS(=O)(=O)c4ccc(N[C@H](CCN5CCOCC5)CSc5ccccc5)c(S(=O)(=O)C(F)(F)F)c4)cc3)CC2)C1 [Navitoclax] (partner 0.5 µM)
Procedure, shortened: (§1)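 Lung cancer cell lines in 1536-well plates got either a single drug or a fixed anchor-drug dose together with five library-drug doses (not always all listed) in √10 steps, by pin tool, on the day after seeding. Nuclei were counted after 5 days, and relative viability is the treated-to-vehicle ratio of nuclei counts. Values are medians of duplicate plates.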

Vandetanib + Navitoclax = compound: COc1cc2/c(=N/c3ccc(Br)cc3F)nc[nH]c2cc1OCC1CCN(C)CC1 [Vandetanib] + CC1(C)CCC(c2ccc(Cl)cc2)=C(CN2CCN(c3ccc(C(=O)NS(=O)(=O)c4ccc(N[C@H](CCN5CCOCC5)CSc5ccccc5)c(S(=O)(=O)C(F)(F)F)c4)cc3)CC2)C1 [Navitoclax] (partner 0.5 µM)
Procedure, shortened: as §1

[1] = compound: C1=CC=C2C(=C1)N=C(S2)C(C#N)C3=NC(=NC=C3)NCCC4=CN=CC=C4 + CCNC(=O)c1noc(-c2cc(C(C)C)c(O)cc2O)c1-c1ccc(CN2CCOCC2)cc1 [Luminespib] (partner 0.01 µM)
Procedure, shortened: as §1

Vandetanib + Bortezomib = compound: COc1cc2/c(=N/c3ccc(Br)cc3F)nc[nH]c2cc1OCC1CCN(C)CC1 [Vandetanib] + CC(C)C[C@H](NC(=O)[C@H](Cc1ccccc1)NC(=O)c1cnccn1)B(O)O [Bortezomib] (partner 0.002 µM)
Procedure, shortened: as §1

| Cell Line | relative viability (CUDC-101 + Navitoclax; first compound 0.01 µM) | relative viability (CUDC-101 + Navitoclax; first compound 0.03162 µM) | relative viability (CUDC-101 + Navitoclax; first compound 0.1 µM) | relative viability (CUDC-101 + Navitoclax; first compound 0.3162 µM) | relative viability (CUDC-101 + Navitoclax; first compound 1 µM) | relative viability (Vandetanib + Navitoclax; first compound 0.02 µM) | relative viability (Vandetanib + Navitoclax; first compound 0.06325 µM) | relative viability (Vandetanib + Navitoclax; first compound 0.2 µM) | relative viability (Vandetanib + Navitoclax; first compound 0.6325 µM) | relative viability (Vandetanib + Navitoclax; first compound 2 µM) | relative viability ([1]; first compound 0.005 µM) | relative viability ([1]; first compound 0.01581 µM) | relative viability ([1]; first compound 0.05 µM) | relative viability ([1]; first compound 0.1581 µM) | relative viability ([1]; first compound 0.5 µM) | relative viability (Vandetanib + Bortezomib; first compound 0.02 µM) | relative viability (Vandetanib + Bortezomib; first compound 0.06325 µM) | relative viability (Vandetanib + Bortezomib; first compound 0.2 µM) | relative viability (Vandetanib + Bortezomib; first compound 0.6325 µM) | relative viability (Vandetanib + Bortezomib; first compound 2 µM) |
| --- | --- | --- | --- | --- | --- | --- | --- | --- | --- | --- | --- | --- | --- | --- | --- | --- | --- | --- | --- | --- |
| A-427 | 0.978 | 0.919 | 0.939 | 0.926 | 0.924 | 0.931 | 0.952 | 0.992 | 0.935 | 0.874 | 0.784 | 1 | 0.861 | 1.18 | 0.965 | 0.887 | 0.99 | 1.04 | 1.02 | 0.961 |
| NCI-H1975 | 1.32 | 1.09 | 1.19 | 1.27 | 1.13 | 1.14 | 1.13 | 1.13 | 0.992 | 1.1 |  | 0.202 | 0.246 | 0.171 | 0.225 | 0.359 | 0.35 | 0.376 | 0.355 | 0.383 |
| NCI-H1993 | 0.827 | 0.884 | 0.743 | 0.771 | 0.558 | 0.932 | 0.942 | 0.853 | 0.838 | 0.789 | 0.846 | 0.852 | 0.821 | 0.834 | 0.738 | 1.03 | 0.905 | 1.04 | 0.807 | 0.719 |
| NCI-H2023 | 1.02 | 0.983 | 0.993 | 1 | 0.964 | 0.898 | 0.971 | 1.04 | 1.01 | 0.996 | 0.994 | 1 | 0.901 | 1.03 | 0.765 | 0.924 | 0.839 | 0.96 | 1.03 | 1.04 |
| 201T | 1.18 | 1.17 | 1.16 | 1.2 | 1.21 | 1.1 | 1.19 | 1.2 | 1.15 | 1.19 | 1.06 | 1.06 | 1.09 | 1.07 | 1.07 | 1.03 | 1.08 | 1.13 | 1.03 | 1.06 |
| SW 1573 | 1.2 | 0.897 | 0.951 | 1.23 | 0.901 | 1.03 | 0.895 | 1.25 | 0.862 | 0.993 | 0.317 | 0.292 | 0.221 | 0.275 | 0.193 | 1 | 0.817 | 1.16 | 1.01 | 0.879 |
| NCI-H647 | 1.2 | 1.01 | 1.11 | 1.09 | 0.844 | 0.943 | 1.09 | 1.16 | 1.17 | 1.06 | 0.208 | 0.262 | 0.169 | 0.235 | 0.286 | 0.962 | 0.947 | 1.05 | 0.817 | 0.804 |
| NCI-H727 | 0.377 | 0.413 | 0.417 | 0.304 | 0.269 | 0.45 | 0.468 | 0.528 | 0.449 | 0.287 |  | 0.241 | 0.294 | 0.105 | 0.329 | 0.791 | 0.657 | 0.783 | 0.856 | 0.872 |
